Consider 18 molecules from patent publication US20220313698A1, “MODULATORS OF CYSTIC FIBROSIS TRANSMEMBRANE CONDUCTANCE REGULATOR” (Vertex Pharmaceuticals Incorporated, priority 2019, published 2022).

A word on the EC50: it is the midpoint of the concentration-response curve.

The structures appear in SMILES notation. Where two headings read alike, the source gives them in different places. Bounds are passed on as bounds.

The conditions of data set [1]: snar bond, 15-membered ring.
Data set [2] concerns the target T1, CFTR-mediated chloride transport (Homo sapiens, UniProt P13569). Description: Corrector Assay B - membrane potential dye assay (enteroid cells).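 On all read-outs here: methyl oxonol membrane potential fluorescence followed over 15 min after switching to chloride-free buffer with forskolin, 100 µM IBMX and ivacaftor, in presence of CaCC blockers.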 The settings on record: for Corrector Assay B % activity: % of chloride transport of triple combination control (3 μM Compound A + 3 μM tezacaftor + 300 nM ivacaftor); for EC50: read-out: Corrector Assay B EC50, human intestinal enteroid cells, 18-24 h incubation, acute 10 μM forskolin + 300 nM ivacaftor.
Procedure: Base medium (ADF+++) consisted of Advanced DMEM/Ham's F12, 2 mM Glutamax, 10 mM HEPES, 1 μg/ml penicillin/streptomycin.
Intestinal enteroid maintenance medium (IEMM) consisted of ADF+++, 1×B27 supplement, 1×N2 supplement, 1.25 mM N-acetyl cysteine, 10 mM Nicotinamide, 50 ng/mL hEGF, 10 nM Gastrin, 1 μg/mL hR-spondin-1, 100 ng/mL hNoggin, TGF-b type 1 inhibitor A-83-01, 100 μg/mL Primocin, 10 μM P38 MAPK inhibitor SB202190.
Bath 1 Buffer consisted of 1 mM MgCl2, 160 mM NaCl, 4.5 mM KCl, 10 mM HEPES, 10 mM Glucose, 2 mM CaCl2).
Chloride Free Buffer consisted of 1 mM Magnesium Gluconate, 2 mM Calcium Gluconate, 4.5 mM Potassium Gluconate, 160 mM Sodium Gluconate, 10 mM HEPES, 10 mM Glucose.
Bath 1 Dye Solution consisted of Bath 1 Buffer, 0.04% Pluronic F127, 20 μM Methyl Oxonol, 30 μM CaCCinh-A01, 30 μM Chicago Sky Blue.
Chloride Free Dye Solution consisted of Chloride Free Buffer, 0.04% Pluronic F127, 20 μM Methyl Oxonol, 30 μM CaCCinh-A01, 30 μM Chicago Sky Blue.
Chloride Free Dye Stimulation Solution consisted of Chloride Free Dye Solution, 10 μM forskolin, 100 μM IBMX, and 300 nM Ivacaftor.
Cells were recovered in cell recovery solution, collected by centrifugation at 650 rpm for 5 min at 4° C., resuspended in TryPLE and incubated for 5 min at 37° C. Cells were then collected by centrifugation at 650 rpm for 5 min at 4° C. and resuspended in IEMM containing 10 μM ROCK inhibitor (RI). The cell suspension was passed through a 40 μm cell strainer and resuspended at 1×10^6 cells/mL in IEMM containing 10 μM RI. Cells were seeded at 5000 cells/well into multi-well plates and incubated for overnight at 37° C., 95% humidity and 5% CO2 prior to assay.
Briefly, cells were washed 5 times in Bath 1 Buffer. Bath 1 Dye Solution was added and the cells were incubated for 25 min at room temperature. Following dye incubation, cells were washed 3 times in Chloride Free Dye Solution. Chloride transport was initiated by addition of Chloride Free Dye Stimulation Solution and the fluorescence signal was read for 15 min. The CFTR-mediated chloride transport for each condition was determined from the AUC of the fluorescence response to acute forskolin and 300 nM N-[2,4-bis(1,1-dimethylethyl)-5-hydroxyphenyl]-1,4-dihydro-4-oxoquinoline-3-carboxamide stimulation. Chloride transport was then expressed as a percentage of the chloride transport following treatment with 3 μM Compound A, 3 μM (R)-1-(2,2-difluorobenzo[d][1,3]dioxol-5-yl)-N-(1-(2,3-dihydroxypropyl)-6-fluoro-2-(1-hydroxy-2-methylpropan-2-yl)-1H-indol-5-yl)cyclopropanecarboxamide and 300 nM acute N-[2,4-bis(1,1-dimethylethyl)-5-hydroxyphenyl]-1,4-dihydro-4-oxoquinoline-3-carboxamide triple combination control (% Activity).

For data set [3] the following is noted: snar bond.
Data set [4] deals with T1, CFTR-mediated chloride transport. Description: Corrector Assay A - membrane potential dye assay (enteroid cells). The settings on record: for Corrector Assay A % activity: % of chloride transport of triple combination control (1 μM (14S)-dispiro macrocycle + 3 μM tezacaftor + 300 nM ivacaftor); for EC50: read-out: Corrector Assay A EC50, human intestinal enteroid cells, 18-24 h incubation, acute 10 μM forskolin + 300 nM ivacaftor.

As to `CC1(C)C[C@@H]2CCNCc3cccc(n3)S(=O)(=O)NC(=O)c3ccc(-n4ccc(OCCC5C6(CC6)C56CC6)n4)nc3N1C2`, in data set [1] (from CC1(C)C[C@H](CCNCc2cccc(S(=O)(=O)NC(=O)c3ccc(-n4ccc(OCCC5C6(CC6)C56CC6)n4)nc3Cl)n2)CN1, K2CO3, DMSO, 57.3 mM, 120.0 °C, 24.0 h), the ring closure, isolated yield came to 3%.

As to `CC(C)(C)c1ccc2c(n1)N1C[C@@H](CCC(c3cc(Br)ccn3)Nc3cccc(n3)S(=O)(=O)NC2=O)CC1(C)C` (some centres unmarked), the ring closure, isolated yield in data set [1] (from CC(C)(C)OC(=O)N1C[C@@H](CCC(Nc2cccc(S(=O)(=O)NC(=O)c3ccc(C(C)(C)C)nc3F)n2)c2cc(Br)ccn2)CC1(C)C, K2CO3, NMP, 77.8 mM, 150.0 °C, 2 steps) was 21%.

As for `CC1(C)C[C@@H]2CCC(c3ccccn3)Nc3cccc(n3)S(=O)(=O)NC(=O)c3ccc(-n4ccc(OCCC5(C(F)(F)F)CC5)n4)nc3N1C2` (some centres unmarked), the ring closure, isolated yield in data set [1] (from CC1(C)C[C@H](CCC(Nc2cccc(S(=O)(=O)NC(=O)c3ccc(-n4ccc(OCCC5(C(F)(F)F)CC5)n4)nc3Cl)n2)c2ccccn2)CN1, K2CO3/3A MS, DMSO, 26.1 mM, 155.0 °C, 18.0 h, 2 steps) came to 38%.

`CC1(C)CC(C2CC[C@@H]3CN(c4nc(C(C)(C)C)ccc4C(=O)NS(=O)(=O)c4cccc(n4)N2)C(C)(C)C3)CC(C)(C)O1` (mixture of isomers): the ring closure, isolated yield in data set [1] (from 6-tert-Butyl-N-[[6-[[3-[(3S)-5,5-dimethylpyrrolidin-3-yl]-1-(2,2,6,6-tetramethyltetrahydropyran-4-yl)propyl]amino]-2-pyridyl]sulfonyl]-2-fluoro-pyridine-3-carboxamide (Trifluoroacetic Acid (1)), K2CO3, DMF, 80.7 mM, 140.0 °C) is 48%.

With `CC(C)(C)c1ccnc(C2CC[C@@H]3CN(c4cc(C(C)(C)C)c(Br)cc4C(=O)NS(=O)(=O)c4cccc(n4)N2)C(C)(C)C3)c1` (some centres unmarked), the ring closure, isolated yield in data set [1] (from CC1(C)C[C@H](CCC(Nc2cccc(S(=O)(=O)NC(=O)c3cc(Br)c(C(C)(C)C)cc3F)n2)c2cc(C(C)(C)C)ccn2)CN1, Cs2CO3, DMSO, 58.3 mM, 150.0 °C, 96.0 h) came to 17%.

On to `CC1(C)C[C@@H]2CCCN(CC(O)CO)c3cccc(n3)S(=O)(=O)NC(=O)c3ccc(-n4ccc(OCCC5(C(F)(F)F)CC5)n4)nc3N1C2` (stereo partly drawn) [Compound 382, (14S)-18-(2,3-dihydroxypropyl)-12,12-dimethyl-8-(3-{2-[1-(trifluoromethyl)cyclopropyl]ethoxy}-1H-pyrazol-1-yl)-2λ^6-thia-3,9,11,18,23-pentaazatetracyclo [17.3.1.111,14.05,10]tetracosa-1(22),5,7,9,19(23),20-hexaene-2,2,4-trione], for which, in data set [2], the “Corrector Assay B % activity” value is “+++ (+++ is >60%)” and the concentration giving a half-maximal response (EC50) was below 1000 nM. This molecule also had a ring closure, yield after HPLC in data set [3] (from CC(C)(C)OC(=O)N1C[C@@H](CCCN(CC2COC(C)(C)O2)c2cccc(S(=O)(=O)NC(=O)c3ccc(-n4ccc(OCCC5(C(F)(F)F)CC5)n4)nc3Cl)n2)CC1(C)C, 15-membered ring, K2CO3/4A MS, DMSO, 38.5 mM, 140.0 °C, 2 steps) of 59%.

In data set [1] (from CC1(C)C[C@H](CCCNc2cccc(S(=O)(=O)NC(=O)c3ccc(-n4ccc(OCCC5C6(CC6)C56CC6)n4)cc3F)n2)CN1, Cs2CO3, DMSO, 67.0 mM, 150.0 °C, 96.0 h), `CC1(C)C[C@@H]2CCCNc3cccc(n3)S(=O)(=O)NC(=O)c3ccc(-n4ccc(OCCC5C6(CC6)C56CC6)n4)cc3N1C2` returned a ring closure, isolated yield of 29%.

On to `CC(C)(C)c1ccc2c(n1)N1C[C@@H](CCCNc3cccc(n3)S(=O)(=O)NC2=O)CC1(C)C` [Compound 296, (14S)-8-tert-Butyl-12,12-dimethyl-2λ^6-thia-3,9,11,18,23-pentaazatetracyclo[17.3.1.111,14.05,10]tetracosa-1(23),5(10),6,8,19,21-hexaene-2,2,4-trione], for which, in data set [4], the “Corrector Assay A % activity” value was “+++ (+++ is >60%)” and the 50% effective concentration (EC50) was below 1000 nM. In data set [2], the “Corrector Assay B % activity” value is recorded as “+++ (+++ is >60%)” and the concentration for a half-maximal effect (EC50) is below 1000 nM. In addition, the ring closure, yield after HPLC in data set [3] (from CC1(C)C[C@H](CCCNc2cccc(S(=O)(=O)NC(=O)c3ccc(C(C)(C)C)nc3Cl)n2)CN1, 15-membered ring, K2CO3/3A MS, DMSO, 53.4 mM, 165.0 °C, 60.0 h, 2 steps) came to 43%.

The molecule `CC1(C)CC2CN1c1nc(-n3ccc(OCCC4C5(CC5)C45CC5)n3)ccc1C(=O)NS(=O)(=O)c1cccc(n1)NCCC2CCc1ccccc1` (centres unmarked) returned a ring closure, isolated yield in data set [1] (from CC1(C)CC(C(CCNc2cccc(S(=O)(=O)NC(=O)c3ccc(-n4ccc(OCCC5C6(CC6)C56CC6)n4)nc3Cl)n2)CCc2ccccc2)CN1, K2CO3, NMP, 64.5 mM, 150.0 °C, 20.0 h, 2 steps) of 61%.

In data set [1] (from CC(C)(C)c1ccnc(C(CC[C@H]2CCNC2)Nc2cccc(S(=O)(=O)NC(=O)c3ccc(C(C)(C)C)nc3F)n2)c1, K2CO3, DMSO, 77.9 mM, 120.0 °C, 2.0 h), `CC(C)(C)c1ccnc(C2CC[C@H]3CCN(C3)c3nc(C(C)(C)C)ccc3C(=O)NS(=O)(=O)c3cccc(n3)N2)c1` (some centres unmarked) showed a ring closure, isolated yield of 54%.

Regarding `CC1(C)C[C@@H]2CCCN(Cc3nn[nH]n3)c3cccc(n3)S(=O)(=O)NC(=O)c3ccc(-n4ccc(OCCC5(C(F)(F)F)CC5)n4)nc3N1C2` [Compound 372, (14S)-12,12-Dimethyl-18-[(2H-1,2,3,4-tetrazol-5-yl)methyl]-8-(3-{2-[1-(trifluoromethyl)cyclopropyl]ethoxy}-1H-pyrazol-1-yl)-2λ^6-thia-3,9,11,18,23-pentaazatetracyclo[17.3.1.111,14.05,10]tetracosa-1(23),5(10),6,8,19,21-hexaene-2,2,4-trione], in data set [2], the “Corrector Assay B % activity” value is listed as “+++ (+++ is >60%)” and the EC50 lay within 1000 to 3000 nM. The molecule also yielded a ring closure, yield after HPLC in data set [3] (from CC1(C)C[C@H](CCCN(Cc2nn[nH]n2)c2cccc(S(=O)(=O)NC(=O)c3ccc(-n4ccc(OCCC5(C(F)(F)F)CC5)n4)nc3Cl)n2)CN1, 15-membered ring, K2CO3/3A MS, DMSO, 25.8 mM, 155.0 °C, 18.0 h, 2 steps) of 18%.

`CC(C)(C)c1ccnc([C@H]2CC[C@@H]3CN(c4nc(Br)ccc4C(=O)NS(=O)(=O)c4cccc(n4)N2)C(C)(C)C3)c1` [Compound 55, (14S,17R)-8-bromo-17-(4-tert-butylpyridin-2-yl)-12,12-dimethyl-2λ^6-thia-3,9,11,18,23-pentaazatetracyclo[17.3.1.111,14.05,10]tetracosa-1(22),5,7,9,19(23),20-hexaene-2,2,4-trione]: in data set [4], the “Corrector Assay A % activity” value is given as “++ (++ is 30-60%)” and the concentration giving a half-maximal response (EC50) was below 1000 nM. The ring closure, yield after HPLC in data set [3] (from CC1(C)C[C@@H](CCC(Nc2cccc(S(=O)(=O)NC(=O)c3ccc(Br)nc3Cl)n2)c2cc(C(C)(C)C)ccn2)CN1, 15-membered ring, K2CO3, DMA, 97.8 mM, 140.0 °C, 7.0 h) came to 23%.

`CC(C)(C)c1ccnc(C2CC[C@@H]3CN(c4nc(C(C)(C)C)c(Br)cc4C(=O)NS(=O)(=O)c4cccc(n4)N2)C(C)(C)C3)c1` (some centres unmarked) showed a ring closure, isolated yield in data set [1] (from CC(C)(C)OC(=O)N1C[C@@H](CCC(Nc2cccc(S(=O)(=O)NC(=O)c3cc(Br)c(C(C)(C)C)nc3Cl)n2)c2cc(C(C)(C)C)ccn2)CC1(C)C, K2CO3, NMP, 61.5 mM, 160.0 °C, 2 steps) of 56%.

In the case of `CC1(C)CCCc2cc3c(nc21)N1C[C@@H](CCCNc2cccc(n2)S(=O)(=O)NC3=O)CC1(C)C` [Compound 265, (18S)-11,11,16,16-Tetramethyl-2λ^6-thia-3,13,15,22,27-pentaazapentacyclo[21.3.1.115,18.05,14.07,12]octacosa-1(27),5(14),6,12,23,25-hexaene-2,2,4-trione], in data set [4], the “Corrector Assay A % activity” value is listed as “++ (++ is 30-60%)” and the EC50 is below 1000 nM. The same molecule registered a ring closure, yield after HPLC in data set [3] (from CC1(C)C[C@H](CCCNc2cccc(S(=O)(=O)NC(=O)c3cc4c(nc3Cl)C(C)(C)CCC4)n2)CN1, 15-membered ring, K2CO3/3A MS, NMP, 33.9 mM, 170.0 °C, 84.0 h, 2 steps) of 11%.

Regarding `CC(C)(C)c1ccnc(C2CC[C@H]3CCCN(C3)c3nc(C(C)(C)C)ccc3C(=O)NS(=O)(=O)c3cccc(n3)N2)c1` (some centres unmarked), the ring closure, isolated yield in data set [1] (from CC(C)(C)c1ccnc(C(CC[C@H]2CCCNC2)Nc2cccc(S(=O)(=O)NC(=O)c3ccc(C(C)(C)C)nc3F)n2)c1, K2CO3, DMSO, 69.4 mM, 120.0 °C, 24.0 h) worked out at 17%.

With `CC(C)(C)CC1CNc2cccc(n2)S(=O)(=O)NC(=O)c2ccc(-n3ccc(OCCC4C5(CC5)C45CC5)n3)nc2N2C[C@@H](C1)CC2(C)C` (some centres unmarked), in data set [1] (from CC(C)(C)CC(CNc1cccc(S(=O)(=O)NC(=O)c2ccc(-n3ccc(OCCC4C5(CC5)C45CC5)n3)nc2Cl)n1)C[C@@H]1CNC(C)(C)C1, K2CO3, DMSO, 73.6 mM, 120.0 °C, 20.0 h), the ring closure, isolated yield was 44%.

In data set [1] (from CC1(C)C[C@H](CCC(Nc2cccc(S(=O)(=O)NC(=O)c3ccc(-n4ccc(OCCC5(C(F)(F)F)CC5)n4)nc3Cl)n2)c2cncnc2)CN1, K2CO3/3A MS, DMSO, 49.2 mM, 155.0 °C, 18.0 h), `CC1(C)C[C@@H]2CCC(c3cncnc3)Nc3cccc(n3)S(=O)(=O)NC(=O)c3ccc(-n4ccc(OCCC5(C(F)(F)F)CC5)n4)nc3N1C2` (some centres unmarked) had a ring closure, isolated yield of 28%.

With `CC1(C)C[C@@H]2CCCn3nnnc3CNc3cccc(n3)S(=O)(=O)NC(=O)c3ccc(-n4ccc(OCCC5(C(F)(F)F)CC5)n4)nc3N1C2` [Compound 380, (12S)-14,14-dimethyl-18-(3-{2-[1-(trifluoromethyl)cyclopropyl]ethoxy}-1H-pyrazol-1-yl)-24λ^6-thia-2,5,6,7,8,15,17,23,29-noNaazapentacyclo [23.3.1.112,15.04,8.016,21]triaconta-1(28),4,6,16,18,20,25(29),26-octaene-22,24,24-trione], in data set [2], the “Corrector Assay B % activity” value was “+++ (+++ is >60%)” and the EC50 was below 1000 nM. For the same molecule, the ring closure, yield after HPLC in data set [3] (from CC1(C)C[C@H](CCCn2nnnc2CNc2cccc(S(=O)(=O)NC(=O)c3ccc(-n4ccc(OCCC5(C(F)(F)F)CC5)n4)nc3Cl)n2)CN1, 18-membered ring, K2CO3/3A MS, DMSO, 35.1 mM, 155.0 °C, 16.0 h, 2 steps) worked out at 41%.
